Data reported in patent publication US20130310256A1, “HERBICIDAL COMPOSITIONS COMPRISING 4-AMINO-3-CHLORO-5-FLUORO-6-(4-CHLORO-2-FLUORO-3-METHOXYPHENYL) PYRIDINE-2-CARBOXYLIC ACID OR A DERIVATIVE THEREOF AND VLCFA AND LIPID SYNTHESIS INHIBITING HERBICIDES” (DOW AGROSCIENCES LLC, priority 2008, published 2013).
Several values for one entry are separate records, joined by “and”; a condition that tells them apart may be missing. Equal values may be shown once.

Tests used:
LEFCH = test: Example I: postemergence foliar-applied weed control, greenhouse; format: in vivo, Leptochloa chinensis (L.) Nees (Chinese sprangletop); conditions: for Visual Weed Control (%) - 21 DAA LEFCH Obs / Visual Weed Control (%) - 22 DAA LEFCH Obs / Visual Weed Control (%) - 19 DAA LEFCH Obs: foliar
Procedure, shortened: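 Plants grown in loam/sandy loam–calcareous grit soil (80:20) in greenhouse, 14 hr photoperiod, about 29° C. day/26° C. night, treated postemergence at first to fourth true leaf stage. Foliar spray at 187 L/ha with 1.25% (v/v) crop oil concentrate; Compound A dosed on acid equivalent basis, partners on active ingredient basis.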

IPOHE = test: as above; format: in vivo, Ipomoea hederacea Jacq. (ivyleaf morningglory); conditions: for Visual Weed Control Obs: 20 DAA; for Visual Weed Control (%) - 21 DAA IPOHE Obs: foliar
Description: Seeds or nutlets of the desired test plant species were planted in a soil matrix prepared by mixing a loam or sandy loam soil (e.g., 28.6 percent silt, 18.8 percent clay, and 52.6 percent sand, with a pH of about 5.8 and an organic matter content of about 1.8 percent) and calcareous grit in an 80 to 20 ratio. The soil matrix was contained in plastic pots with a volume of 1 quart and a surface area of 83.6 square centimeters (cm^2). When required to ensure good germination and healthy plants, a fungicide treatment and/or other chemical or physical treatment was applied. The plants were grown for 8-22 days in a greenhouse with an approximate 14 hr photoperiod which was maintained at about 29° C. during the day and 26° C. during the night. Nutrients (Peters Excel® 15-5-15 5-Ca 2-Mg and iron chelate) were applied in the irrigation solution as needed and water was added on a regular basis. Supplemental lighting was provided with overhead metal halide 1000-Watt lamps as necessary. The plants were employed for testing when they reached the first through fourth true leaf stage.
Treatments consisted of the acid or esters of 4-amino-3-chloro-5-fluoro-6-(4-chloro-2-fluoro-3-methoxy-phenyl)pyridine-2-carboxylic acid (Compound A), each formulated as an SC (suspension concentrate), and various herbicidal components alone and in combination. Forms of compound A were applied on an acid equivalent basis.
Other herbicidal components were applied on an active ingredient basis and included very long chain fatty acid (VLCFA) synthesis-inhibiting and fatty acid/lipid synthesis-inhibiting herbicides acetochlor (technical grade material), acetochlor+dichlormid formulated as Topnotch®, pretilachlor (technical grade material), butachlor formulated as Butachlor EC, fentrazamide formulated as Fentrazamide EC, thiobencarb formulated as Bolero® 8EC, cafenstrole formulated as Himeadow® WP or Lapost® Flowable, benfuresate formulated as Full Shot®, dimethenamid-P formulated as Outlook®, indanofan (technical grade material), flufenacet formulated as Define® DF, mefenacet (technical grade material), S-metolachlor formulated as Dual® II Magnum, pethoxamid formulated as Successor® 600, and pyroxasulfone (technical grade material).
Treatment requirements were calculated based upon the rates being tested, the concentration of active ingredient or acid equivalent in the formulation, and a 12 mL application volume at a rate of 187 L/ha.
For treatments comprised of formulated compounds, measured amounts of compounds were placed individually in 25 mL glass vials and diluted in a volume of 1.25% (v/v) Agri-Dex® crop oil concentrated to obtain 12× stock solutions. […] Application solutions were prepared by adding an appropriate amount of each stock solution (e.g., 1 mL) and diluted to the appropriate final concentrations with the addition of 10 mL of an aqueous mixture of 1.25% (v/v) crop oil concentrate so that the final spray solutions contained 1.25+/−0.05% (v/v) crop oil concentrate.
For treatments comprised of technical compounds, weighed amounts can be placed individually in 25 mL glass vials and dissolved in a volume of 97:3 v/v acetone/DMSO to obtain 12× stock solutions. […] Application solutions can be prepared by adding an appropriate amount of each stock solution (e.g., 1 mL) and diluted to the appropriate final concentrations with the addition of 10 mL of an aqueous mixture of 1.5% (v/v) crop oil concentrate so that the final spray solutions contain 1.25% (v/v) crop oil concentrate. When technical materials are used, the concentrated stock solutions can be added to the spray solutions so that the final acetone and DMSO concentrations of the application solutions are […], respectively. […]

CCS(=O)(=O)Oc1ccc2c(c1)C(C)(C)CO2 [Benfuresate, 2,3-dihydro-3,3-dimethyl-5-benzofuranyl ethanesulfonate]
Visual Weed Control (%) - 21 DAA LEFCH Obs (LEFCH; 75 gai/ha): 0%
Visual Weed Control (%) - 21 DAA LEFCH Obs (LEFCH; 150 gai/ha): 10%
Visual Weed Control (%) - 21 DAA LEFCH Obs (LEFCH; 300 gai/ha): 10%
Visual Weed Control (%) - 22 DAA LEFCH Obs (LEFCH; 300 gai/ha): 10%

COc1c(Cl)ccc(-c2nc(C(=O)O)c(Cl)c(N)c2F)c1F [Compound A Acid, 4-amino-3-chloro-6-(4-chloro-2-fluoro-3-methoxyphenyl)-5-fluoropyridine-2-carboxylic acid]
Visual Weed Control (%) - 22 DAA LEFCH Obs (LEFCH; 10.6 gae/ha): 10%
Visual Weed Control Obs (LEFCH; 20 DAA, 17.5 gae/ha): 30% and 50%
Visual Weed Control Obs (LEFCH; 21 DAA, 17.5 gae/ha): 20%
Visual Weed Control Obs (LEFCH; 21 DAA, 35 gae/ha): 45%
Visual Weed Control (%) - 22 DAA LEFCH Obs (LEFCH; 21.2 gae/ha): 10%
Visual Weed Control Obs (IPOHE; 4.38 gae/ha): 0%
Visual Weed Control Obs (IPOHE; 8.75 gae/ha): 20%
Visual Weed Control Obs (IPOHE; 17.5 gae/ha): 40%

COc1c(Cl)ccc(-c2nc(C(=O)OCc3ccccc3)c(Cl)c(N)c2F)c1F [Compound A Benzyl Ester, benzyl ester of 4-amino-3-chloro-5-fluoro-6-(4-chloro-2-fluoro-3-methoxy-phenyl)pyridine-2-carboxylic acid]
Visual Weed Control (%) - 21 DAA LEFCH Obs (LEFCH; 5.3 gae/ha): 0%
Visual Weed Control (%) - 21 DAA LEFCH Obs (LEFCH; 8 gae/ha): 20%
Visual Weed Control (%) - 22 DAA LEFCH Obs (LEFCH; 8 gae/ha): 35%
Visual Weed Control (%) - 21 DAA LEFCH Obs (LEFCH; 10.6 gae/ha): 20%
Visual Weed Control (%) - 19 DAA LEFCH Obs (LEFCH; 16 gae/ha): 45%
Visual Weed Control (%) - 22 DAA LEFCH Obs (LEFCH; 16 gae/ha): 40%
Visual Weed Control Obs (LEFCH; 20 DAA, 17.5 gae/ha): 50% and 25%
Visual Weed Control (%) - 21 DAA LEFCH Obs (LEFCH; 21.2 gae/ha): 35%
Visual Weed Control (%) - 19 DAA LEFCH Obs (LEFCH; 32 gae/ha): 50%
Visual Weed Control (%) - 21 DAA IPOHE Obs (IPOHE; 4.38 gae/ha): 0%
Visual Weed Control (%) - 21 DAA IPOHE Obs (IPOHE; 8.75 gae/ha): 10%
Visual Weed Control (%) - 21 DAA IPOHE Obs (IPOHE; 17.5 gae/ha): 30%
Visual Weed Control (%) - 21 DAA IPOHE Obs (IPOHE; 17.5 gae/ha, 2nd IPOHE sub-table): 10%
Visual Weed Control Obs (IPOHE; 4.38 gae/ha): 10%
Visual Weed Control Obs (IPOHE; 8.75 gae/ha): 15%
Visual Weed Control Obs (IPOHE; 17.5 gae/ha): 25%

CCN(CC)C(=O)n1cnc(S(=O)(=O)c2c(C)cc(C)cc2C)n1 [Cafenstrole, N,N-diethyl-3-[(2,4,6-trimethylphenyl)sulfonyl]-1H-1,2,4-triazole-1-carboxamide]
Visual Weed Control Obs (LEFCH; 20 DAA, 26.25 gai/ha Himeadow WP): 0%
Visual Weed Control Obs (LEFCH; 20 DAA, 52.5 gai/ha Himeadow WP): 0%
Visual Weed Control Obs (LEFCH; 20 DAA, 105 gai/ha Himeadow WP): 0%
Visual Weed Control Obs (LEFCH; 21 DAA, 210 gai/ha Lapost Flowable): 23%
Visual Weed Control Obs (IPOHE; 26.25 gai/ha Himeadow WP): 0%
Visual Weed Control Obs (IPOHE; 105 gai/ha Himeadow WP): 30%
Visual Weed Control (%) - 21 DAA IPOHE Obs (IPOHE; 26.25 gai/ha): 0%
Visual Weed Control (%) - 21 DAA IPOHE Obs (IPOHE; 210 gai/ha, 2nd IPOHE sub-table): 10%
